Values of other authors, collected in patent US20040202693A1, “Pharmaceutical compositions releasing their active agents from a buccal or sublingual location to overcome an absorption window problem” (priority 2003, published 2004).
Read-outs that look alike come from different tables or passages of the source.

Assays:
[1] = oral administration in conventional dosage forms, upper portion of the gastrointestinal tract

SMILES	bioavailability (after oral administration)	absorption (after rectal administration)	bioavailability (enteric-coated formulation)	absorption [1]
O=C(O[C@H]1C[C@H]2CC[C@@H](C1)[N+]21CCCC1)C(O)(c1ccccc1)c1ccccc1 [Trospium chloride]	approximately 10%	almost no absorption at all	significant decrease of bioavailability	–
C[C@H]1c2cccc(O)c2C(=O)C2=C(O)[C@]3(O)C(=O)C(C(N)=O)=C(O)[C@@H](N(C)C)[C@@H]3[C@@H](O)[C@@H]21 [Doxycycline]	–	–	–	rapidly and almost completely absorbed
